Data as given in patent US7851487B2, “Use of tetrahydropyridines in the treatment of central nervous system disorders” (The Research Foundation of State University of New York, priority 2006, dated 2010).
Where a name gives a salt, the structure may show the parent alone.

What was measured:
dopamine transporter = molecular target: T1, dopamine transporter (Rattus norvegicus, UniProt P23977); test: [125I]RTI-55 displacement at dopamine transport sites, rat striatum membranes; format: binding; conditions: DA (IC50, nM), displacement of 10 pM [125I]RTI-55, rat striatum
T1 construct: tissue Pel-Freez, Rogers, AR; host or cells: rat striatum membranes
Method: (§1) For this Example, binding of at biogenic amine transporters was determined using striatum and frontal cortex dissected from frozen Sprague-Dawley rat brains (Pel-Freez, Rogers, AR). Affinities of analogs at dopamine transport sites were determined by displacement of [^125I]RTI-55 binding in membranes from rat striatum, using 0.5 mg (original wet weight) of membranes and 10 pM [^125]RTI-55. Non-specific binding was determined in the presence of 1 μM WF-23 (analog 3a). Affinities of analogs at 5-HT transport sites were determined by displacement of [^3H] paroxetine binding in membranes from rat frontal cortex, using 50 mg (original wet weight) of membranes and 0.4 nM [^3H]paroxetine. Non-specific binding was determined in the presence of 10 μM fluoxetine. Binding of analogs at norepinephrine transport sites was determined by displacement of [^3H]nisoxetine binding in membranes from rat forebrain, using 0.7 nM [^3H]nisoxetine. Non-specific binding was determined in the presence of 1 μM desipramine.
(§2) Potencies were calculated from displacement curves using 7-10 concentrations of unlabeled analogs, as analyzed by non-linear curve fitting. Because binding of tropanes at dopamine transporters is generally regarded as multiphasic,^3 potencies in inhibiting [^125I]RTI-55 binding are reported as IC50 values. For [^3H]paroxetine and [^3H]nisoxetine binding assays, Ki values were calculated using the Cheng-Prusoff equation. All data are mean values±S.E.M. of at least three separate experiments, each of which was conducted in triplicate.
(§3) The binding affinities to dopamine (DA), serotonin (5-HT), and norepinephrine (NE) transporters for the series of compounds (4) are presented in Table 1.

[1] = molecular target: T2, norepinephrine transporter (Rattus norvegicus, UniProt Q9WTR4); test: [3H]nisoxetine displacement at norepinephrine transport sites, rat forebrain membranes; format: binding; conditions: NE (Ki, nM), displacement of 0.7 nM [3H]nisoxetine
T2 construct: tissue Pel-Freez, Rogers, AR; host or cells: rat forebrain membranes
Method: as §1, §2, §3

5-HT transporter = molecular target: T3, 5-HT transporter (Rattus norvegicus, UniProt P31652); test: [3H]paroxetine displacement at 5-HT transport sites, rat frontal cortex membranes; format: binding
T3 construct: tissue Pel-Freez, Rogers, AR; host or cells: rat frontal cortex membranes
Method: as §1, §2, §3

ckr mouse = test: Hyperactivity and circling in ckr mice (model validation); format: in vivo; conditions: rate of hyperactivity and circling after administration, concentrations relevant to human clinical use
Method: The mouse also presents lateral ventricular enlargement, which may mirror neuropathological observations in shizophrenia. […] We have further validated this model by testing risperidone, clozapine, haloperidol and pimozide in the ckr mouse. The behavioral output was assayed by measuring the rate of hyperactivity and circling after administration.

T3 sequence (P31652 whole entry): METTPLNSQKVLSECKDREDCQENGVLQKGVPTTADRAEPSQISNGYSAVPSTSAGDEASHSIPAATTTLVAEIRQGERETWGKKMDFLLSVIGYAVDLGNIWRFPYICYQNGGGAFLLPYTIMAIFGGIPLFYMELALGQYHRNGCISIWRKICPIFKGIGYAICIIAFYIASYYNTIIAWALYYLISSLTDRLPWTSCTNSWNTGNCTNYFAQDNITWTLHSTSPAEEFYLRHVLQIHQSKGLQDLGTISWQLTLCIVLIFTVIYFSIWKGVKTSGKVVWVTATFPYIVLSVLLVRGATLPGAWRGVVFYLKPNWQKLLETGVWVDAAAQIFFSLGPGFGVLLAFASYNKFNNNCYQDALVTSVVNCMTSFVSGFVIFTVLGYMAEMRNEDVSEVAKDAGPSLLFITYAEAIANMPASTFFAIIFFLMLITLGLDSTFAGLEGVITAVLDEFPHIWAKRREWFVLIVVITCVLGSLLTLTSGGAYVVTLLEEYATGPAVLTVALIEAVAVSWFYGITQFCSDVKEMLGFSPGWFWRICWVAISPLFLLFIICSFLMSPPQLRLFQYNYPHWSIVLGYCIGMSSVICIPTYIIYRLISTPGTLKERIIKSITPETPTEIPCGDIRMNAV
T2 sequence (Q9WTR4 1-597): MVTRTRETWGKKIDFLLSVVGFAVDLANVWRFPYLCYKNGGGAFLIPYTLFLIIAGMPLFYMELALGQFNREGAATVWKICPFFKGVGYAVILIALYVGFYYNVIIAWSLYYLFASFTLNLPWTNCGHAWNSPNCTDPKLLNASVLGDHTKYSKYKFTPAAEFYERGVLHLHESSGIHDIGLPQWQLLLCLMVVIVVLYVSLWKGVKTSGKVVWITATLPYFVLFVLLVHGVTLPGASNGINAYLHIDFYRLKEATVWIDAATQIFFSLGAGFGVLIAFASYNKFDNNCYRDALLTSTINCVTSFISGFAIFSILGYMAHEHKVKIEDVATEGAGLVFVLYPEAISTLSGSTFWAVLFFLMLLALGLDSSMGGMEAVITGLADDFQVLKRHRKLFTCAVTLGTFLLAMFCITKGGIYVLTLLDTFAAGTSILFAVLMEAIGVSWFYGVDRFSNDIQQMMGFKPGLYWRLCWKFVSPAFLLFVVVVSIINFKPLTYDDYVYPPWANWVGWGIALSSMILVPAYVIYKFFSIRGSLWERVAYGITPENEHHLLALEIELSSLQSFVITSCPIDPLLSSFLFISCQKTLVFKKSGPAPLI
T1 sequence (P23977 whole entry): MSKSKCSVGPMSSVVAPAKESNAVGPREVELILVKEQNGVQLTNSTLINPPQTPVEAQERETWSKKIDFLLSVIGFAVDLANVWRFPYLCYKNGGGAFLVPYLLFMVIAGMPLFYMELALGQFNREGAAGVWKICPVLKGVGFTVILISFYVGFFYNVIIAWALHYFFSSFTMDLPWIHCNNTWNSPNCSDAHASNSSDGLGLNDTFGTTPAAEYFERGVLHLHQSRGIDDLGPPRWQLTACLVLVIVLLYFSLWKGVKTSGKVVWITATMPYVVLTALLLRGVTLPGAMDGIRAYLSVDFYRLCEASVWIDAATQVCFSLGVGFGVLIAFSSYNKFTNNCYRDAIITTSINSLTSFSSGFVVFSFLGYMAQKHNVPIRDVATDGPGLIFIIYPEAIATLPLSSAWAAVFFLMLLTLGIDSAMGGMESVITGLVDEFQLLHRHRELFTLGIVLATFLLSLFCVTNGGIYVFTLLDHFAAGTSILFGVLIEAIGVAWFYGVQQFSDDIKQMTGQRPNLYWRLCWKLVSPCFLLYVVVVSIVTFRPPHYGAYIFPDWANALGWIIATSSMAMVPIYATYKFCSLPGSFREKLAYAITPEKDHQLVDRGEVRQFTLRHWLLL

SMILES	IC50 (dopamine transporter) [nM]	Ki [1] [nM]	Ki (5-HT transporter) [nM]	hyperactivity in ckr mice (ckr mouse)
COC(=O)C(c1ccc(Cl)c(Cl)c1)C1C=CCCN1 [(2R,2′S)-4d]	216	109	–	–
COC(=O)[C@H](c1ccc(Cl)cc1)[C@@H]1C=CCCN1 [(2R,2′S)-4c]	5030	3310	> 10000	–
COC(=O)C(c1ccc2ccccc2c1)C1C=CCCN1 (racemic) [(±)-4f]	496	1190	1200	–
COC(=O)[C@H](c1ccc(Br)cc1)[C@@H]1C=CCCN1 [(2R,2′S)-4b]	5590	–	–	–
Cc1nc2n(c(=O)c1CCN1CCC(c3noc4cc(F)ccc34)CC1)CCCC2 [risperidone]	–	–	–	dose-dependent attenuation of hyperactivity
COC(=O)[C@@H](c1ccc(Cl)cc1)[C@H]1C=CCCN1 [(2S,2′R)-4c]	5370	391	> 10000	–
COC(=O)[C@H](c1ccc2ccccc2c1)[C@@H]1C=CCCN1 [(2R,2′S)-4f]	547	323	608	–
COC(=O)C(c1ccc(Cl)cc1)C1C=CCCN1 (racemic) [(±)-4c]	6380	1910	> 10000	–
COC(=O)C(c1ccc(Br)cc1)C1C=CCCN1 (racemic) [(±)-4b]	6020	–	–	–
COC(=O)[C@@H](c1ccc2ccccc2c1)[C@H]1C=CCCN1 [(2S,2′R)-4f]	864	800	1960	–
COC(=O)C(c1ccc(Cl)c(Cl)c1)C1C=CCCN1 [(2S,2′R)-4d]	329	193	> 10000	–
O=C(CCCN1CCC(O)(c2ccc(Cl)cc2)CC1)c1ccc(F)cc1 [haloperidol]	–	–	–	dose-dependent attenuation of hyperactivity
COC(=O)[C@@H](c1ccc(Br)cc1)[C@H]1C=CCCN1 [(2S,2′R)-4b, (S)-Methyl 2-(4-bromophenyl)-2-((R)-1,2,5,6-tetrahydropyridin-2-yl)acetate hydrochloride]	5340	–	–	–
